Data from PMC6246635 (Frontiers in Physiology, 2018).

What was measured:
DPP8 = tested on: DPP8; set-up: method as in Lankas et al., 2005; conditions: ref Lankas et al., 2005; cited from earlier work
CaMKII = test: Western blot pCaMKII (T286); format: cell-based, murine; conditions: HL-1 cells
Method: (§1) HL-1 cells (a murine cardiomyocyte cell line, Sigma-Aldrich, Vienna, Austria) were cultured in fibronectin (0.5% [w/v])/gelatin (0.02% [w/v]) coated flasks and maintained in Claycomb medium (Sigma-Aldrich) ([Claycomb et al., 1998]) containing 10% (v/v) fetal bovine serum (FBS, Thermo Fisher Scientific, IL, United States), 0.1 mM norepinephrine, 2 mM L-glutamine, 100 IU/ml penicillin and 100 μg/ml streptomycin (Sigma-Aldrich), and kept at 37°C under 5% CO2, as previously described ([Scheruebel et al., 2014]).
(§2) HL-1 cells or mouse left ventricle (LV) were lysed in ice-cold lysis buffer (containing in mM: HEPES 50, NaCl 150, EDTA 1, Na4P2O7 10, Na3VO4 2, NaF 10, 1% [v/v] Triton X-100, 10% [v/v] glycerol, pH 7.4, Sigma-Aldrich) containing a Protease Phosphatase Inhibitor Cocktail (Thermo Fisher Scientific). Pellets were separated by centrifugation at 13,000 rpm (4°C, 10 min). Protein estimation of whole cell was performed using BCA protein assay kit (Thermo Fisher Scientific). Whole cell protein lysates (50 μg) were added to 10 μl of NuPAGE LDS sample buffer (Invitrogen) containing 2 μl of NuPAGE sample reducing agent (Invitrogen). After heating for 10 min at 70°C, proteins were separated by electrophoresis on NuPAGE 4–12% Bis-Tris gel (Invitrogen) and transferred to nitrocellulose membranes (Invitrogen, 0.2 μm) ([Jain et al., 2015]). Membranes were blocked with 5% (w/v) non-fat milk in Tris-buffered saline containing Tween 20 (TBST, 25°C, 2 h) and incubated with primary antibodies overnight at 4°C. The following primary antibodies (diluted in 5% [w/v] BSA-TBST) were used: phospho-CaMKII (pCaMKII, T286, 1:1000, Abcam, ab32678), phospho-PLB (pPLB, T17, 1:5000, Badrilla, A010-13), DPP8 (1:500, Santa Cruz, sc-376399), DPP9 (1:500, Santa Cruz, sc-271634), CaMKII (1:500, Santa Cruz, sc-9035), and PLB (1:2000, Thermo Fisher Scientific, MA3-922). After washing, the membranes were incubated with HRP-conjugated goat anti-mouse IgG (1:10,000, Cell Signaling, 7076) or goat anti-rabbit IgG (1:10,000, Cell Signaling, 7074) (25°C, 2 h). Immunoreactive bands were visualized using Immobilon Western Chemiluminescent HRP substrate (Merck Millipore, Vienna, Austria) and developed by Bio-Rad ChemiDoc MP Imaging System. For normalization, membranes were stripped with stripping buffer (58.4 g/l NaCl, 7.5 g/l glycine, pH 2.15), blocked and incubated with a primary antibody against glyceraldehyde 3-phosphate dehydrogenase (GAPDH, 1:1000, Santa Cruz, sc-25778). Densitometric evaluation of immunoreactive bands was performed using Image Lab 4.1 software.
(§3) HL-1 cells were transfected with siRNAs (four different constructs) specific for DPP8 or DPP9 (40 nM each, Qiagen), or scrambled negative control siRNA (40 nM si-scr; Allstars negative control siRNA, Qiagen) ([Koyani et al., 2014]). The siRNA transfection was performed using Lipofectamine 3000 (Invitrogen) according to the supplier’s manual. Briefly, HL-1 (50% confluent) were transfected with 1 ml medium (composition of medium is given above, without FBS and antibiotics) containing 2 μl of Lipofectamine 3000 and the respective siRNA for 6 h at 37°C. Transfection medium was replaced with medium (containing FBS and antibiotics) and cells were grown for another 24 h. The mRNA expression levels of silenced genes were measured using qPCR (see above).

PLB = test: Western blot pPLB (T17); format: cell-based, murine; conditions: HL-1 cells
Method: as §1, §2, §3

[1] = tested on: mouse ventricular cardiomyocytes; test: Ca2+ transient (CaT) measurement; format: cell-based; conditions: 2 μM, 2 h, 1 Hz
Method: (§4) Cardiomyocytes were isolated from adult mice (14–18 weeks old, either sex). The experimental procedure and number of used animals were approved by the ethics committee of the Federal Ministry of Science, Research and Economy of the Republic of Austria (BMWF-66.010/0038-V/3b/2018). Mice were euthanized (40 mg/kg ketamine and 10 mg/kg xylazine), hearts were quickly removed and cardiomyocytes were isolated as previously described ([Ackers-Johnson et al., 2016]) using collagenase 2 and 4 (Worthington Biochemical Corporation, NJ, United States). After isolation cardiomyocytes were kept in standard external solution (containing in mM: NaCl 137, KCl 5.4, CaCl2 1.8, MgCl2 1.1, NaHCO3 2.2, NaH2PO4 0.4, HEPES/Na^+ 10, D(+)-glucose 5.6, pH 7.4 adjusted with NaOH). All experiments were performed on the day of isolation.
CaT was assessed by field stimulation (platinum electrode distance: 1 cm; pulse duration: 5 ms; suprathreshold pulse amplitude: 4 V/cm) at a frequency of 1 Hz using a video-based sarcomere length detection system (IonOptix Corporation, MA, United States) at 37°C. Fluorescence intensities were measured at 340 and 380 nm of excitation and at 510 nm of emission wavelengths using a dual excitation light source. The F340/F380 ratio was used as an index of cytosolic Ca^2+ concentration and to calculate CaT relaxation tau (τCaT). Data were analyzed using Clampfit 10.2 (Molecular Devices) and LabChart 7.0 (peak analysis module, ADInstruments Ltd., Oxford, United Kingdom).

CaMKII and PLB = test: Western blot total CaMKII and PLB expression; format: cell-based, murine; conditions: HL-1 cells, 2 μM, time course
Method: as §1
HL-1 cells or mouse left ventricle (LV) were lysed in ice-cold lysis buffer (containing in mM: HEPES 50, NaCl 150, EDTA 1, Na4P2O7 10, Na3VO4 2, NaF 10, 1% [v/v] Triton X-100, 10% [v/v] glycerol, pH 7.4, Sigma-Aldrich) containing a Protease Phosphatase Inhibitor Cocktail (Thermo Fisher Scientific). Pellets were separated by centrifugation at 13,000 rpm (4°C, 10 min). Protein estimation of whole cell was performed using BCA protein assay kit (Thermo Fisher Scientific). Whole cell protein lysates (50 μg) were added to 10 μl of NuPAGE LDS sample buffer (Invitrogen) containing 2 μl of NuPAGE sample reducing agent (Invitrogen). After heating for 10 min at 70°C, proteins were separated by electrophoresis on NuPAGE 4–12% Bis-Tris gel (Invitrogen) and transferred to nitrocellulose membranes (Invitrogen, 0.2 μm) ([Jain et al., 2015]). […]

DPP9 = tested on: DPP9; set-up: method as in Lankas et al., 2005; conditions: ref Lankas et al., 2005; cited from earlier work
PKC [2] = test: PKC activity assay in HL-1 cells; format: cell-based, murine
Method: as §1, §3
Estimation of active PKC was performed using a PKC kinase activity kit (ADI-EKS-420A, Enzo Life Sciences, NY, United States) according to the manufacturer’s protocol.

[3] = set-up: method as in Udenfriend et al., 1972; conditions: unbound, aqueous solution; ref Udenfriend et al., 1972; cited from earlier work
[4] = plasma Cmax after single dose; format: in vivo; conditions: human, 5 mg single dose, equivalent of 24 ng/ml (Onglyza, 2016), read-out: plasma Cmax, molar equivalent
[5] = set-up: method as in Koyani et al., 2017; Lee et al., 2016; He et al., 2009; conditions: in vitro studies; ref Koyani et al., 2017; Lee et al., 2016; He et al., 2009; cited from earlier work
PKC [6] = tested on: PKC; set-up: method as in Dai et al., 2014; conditions: THP-1 macrophages; ref Dai et al., 2014; cited from earlier work
[7] = set-up: method as in Onglyza, 2016; conditions: 5 mg single dose; ref Onglyza, 2016; cited from earlier work
[8] = tested on: mouse ventricular cardiomyocytes; test: patch clamp action potential recording; format: cell-based; conditions: 2 μM, 5 min superfusion, 1 Hz
Method: as §4
Action potentials (APs) were recorded in the whole cell configuration of the patch clamp technique using Axopatch 200B amplifier (Molecular Devices, CA, United States) and the A/D – D/A converters Digidata 1322A (Molecular Devices). […] Ten consecutive APs were analyzed using LabChart 7.0 (Cardiac action potential analysis module, ADInstruments Ltd., Oxford, United Kingdom).

[9] = set-up: method as in Green et al., 2015; conditions: TECOS trial, T2DM patients; ref Green et al., 2015; cited from earlier work
PKC [10] = tested on: PKC; set-up: method as in Hasegawa et al., 2016; conditions: human endothelial cells; ref Hasegawa et al., 2016; cited from earlier work
HL-1 cardiomyocytes = test: fluorescence microscopy of fluorescamine adduct uptake; format: cell-based, murine; conditions: HL-1 cells, drug-fluorescamine 2–2 μM
Method: as §1, with “2014]). […] Fluorescence images were captured at excitation/emission wavelengths of 390/470 nm.” for “2014]).”

CC[C@@H](C)[C@H](N)C(=O)N1Cc2ccccc2C1.Cl [TC-E 5007]
reduced CaMKII phosphorylation (T286), time from which observed (CaMKII; 2 μM): ≥ 30 min
reduced pPLB (T17), time from which observed (PLB; 2 μM): ≥ 60 min
CaT relaxation (reciprocal of τCaT) [1]: impaired cardiac relaxation
total CaMKII and PLB protein levels (CaMKII and PLB): did not affect
reduced PKC activity, time from which observed (PKC [2]; 2 μM): ≥ 10 min

O=C1OC2(OC=C(c3ccccc3)C2=O)c2ccccc21 (stereo not shown) [fluorescamine]
half-life [3]: 5 to 10 s

N#C[C@@H]1C[C@@H]2C[C@@H]2N1C(=O)[C@@H](N)C12CC3CC(CC(O)(C3)C1)C2 [saxagliptin]
reduced CaMKII phosphorylation (T286), time from which observed (CaMKII; 2 μM): ≥ 2.5 min
pCaMKII expression in DPP8 knocked down cardiomyocytes (CaMKII; 2 μM, 5 min, si-DPP8): effectively inhibited
inhibition of CaMKII phosphorylation, concentration from which observed (CaMKII; 5 min): ≥ 200 nM
reduced pPLB (T17), time from which observed (PLB; 2 μM): ≥ 15 min
efficacy on pPLB expression in DPP8/DPP9 silenced cells (PLB; 2 μM, 30 min): abolished in DPP9 (but not DPP8) silenced cells
reduced pPLB expression, concentration from which observed (PLB; 30 min): ≥ 200 nM
Cmax [4]: ~76 nM
membrane permeability [5]: significant membrane permeability
oxidized low-density lipoprotein-induced pPKC levels (PKC [6]): inhibited
CaT relaxation (reciprocal of τCaT) [1]: impaired cardiac relaxation
plasma Cmax [7]: 24 ng/mL
reduced PKC activity, time from which observed (PKC [2]; 2 μM): ≥ 2.5 min
efficacy on PKC activity in DPP8/DPP9 silenced cardiomyocytes (PKC [2]; 2 μM, 10 min): significantly abolished in DPP9 (but not DPP8) silenced cardiomyocytes
reduced PKC activity, concentration from which observed (PKC [2]; 10 min): ≥ 1 µM
action potential duration (APD, 90% repolarization) [8]: prolongation of APD

N[C@@H](CC(=O)N1CCn2c(nnc2C(F)(F)F)C1)Cc1cc(F)c(F)cc1F [sitagliptin]
effect on pCaMKII expression, time course (CaMKII; 2 μM): failed to inhibit
effect on CaMKII phosphorylation, concentration-dependent (CaMKII; up to 10 μM, 5 min): no effect
effect on PLB phosphorylation levels (PLB; time course (2 μM) and concentration series (30 min)): neither time- (Figure 2F) nor concentration-dependent experiments (Figure 2H) showed an effect
membrane permeability [5]: significant membrane permeability
effect on the hospitalization of HF [9]: did not show any effect
CaT relaxation (reciprocal of τCaT) [1]: ineffective
effect on intracellular PKC activity (PKC [2]; time course (2 μM) and concentration series (10 min)): no effect
effect on PKC activity (PKC [10]): ineffective
action potential duration (APD, 90% repolarization) [8]: not
cellular uptake and localization (fluorescence) (HL-1 cardiomyocytes): internalized by cardiomyocytes and localizes in the cytosol

N#C[C@@H]1CCCN1C(=O)CNC12CC3CC(CC(O)(C3)C1)C2 [vildagliptin]
membrane permeability [5]: significant membrane permeability
